Patent US9913838B2, “Methods of treating cancer using compositions comprising perillyl alcohol derivative” (NEONC TECHNOLOGIES INC., priority 2010, dated 2018)
“Also recorded” adds a separate entry of the source.

What was measured:
U251 human glioma cells = assay: MTT cytotoxicity assay, U251 glioma cells; conditions: U251; result in words
Source text: In vitro efficacy of the present composition can be determined using methods well known in the art. For example, the cytoxicity of the present monoterpene (or sesquiterpene) and/or the therapeutic agents may be studied by MTT [3-(4,5-dimethylthiazol-2-yl)-2,5-diphenyl tetrazolium bromide] cytotoxicity assay. MTT assay is based on the principle of uptake of MTT, a tetrazolium salt, by metabolically active cells where it is metabolized into a blue colored formazon product, which can be read spectrometrically. J. of Immunological Methods 65: 55 63, 1983. The cytoxicity of the present monoterpene (or sesquiterpene) derivative and/or the therapeutic agents may be studied by colony formation assay. Functional assays for inhibition of VEGF secretion and IL-8 secretion may be performed via ELISA. Cell cycle block by the present monoterpene (or sesquiterpene) derivative and/or the therapeutic agents may be studied by standard propidium iodide (PI) staining and flow cytometry. Invasion inhibition may be studied by Boyden chambers. In this assay a layer of reconstituted basement membrane, Matrigel, is coated onto chemotaxis filters and acts as a barrier to the migration of cells in the Boyden chambers. Only cells with invasive capacity can cross the Matrigel barrier. Other assays include, but are not limited to cell viability assays, apoptosis assays, and morphological assays.
First cytotoxicity assays were carried out after cells were treated with dimethyl-celecoxib (DMC) alone.
Then U87, A172 and U251 cells were treated with dimethyl celecoxib bisPOH carbamate (POH−DMC) (e.g., synthesized by the method in Example 1), and the MTT cytotoxicity assays performed (FIG. 2).
First cytotoxicity assays were carried out after cells were treated with temozolomide (TMZ) alone, the standard alkylating agent used in the treatment of malignant gliomas.
Then TMZ-resistant glioma cell lines U87, A172 and U251 cells were treated with TMZ-POH (e.g., synthesized by the method in Example 3).
To compare the cytotoxicity of Rolipram POH Carbamate (POH-Rolipram) (e.g., synthesized by the method in Example 5) with rolipram, […] inducing differentiation and apoptosis in glioma cells, A172, U87, U251 and LN229 human glioma cells were treated with either POH-Rolipram or rolipram for 48 hours.
MTT cytotoxicity assays were carried out after cells were treated with the TMZ-POH conjugate. The MTT cytotoxicity assays were carried out as described in Chen T C, et al. Green tea epigallocatechin gallate enhances therapeutic efficacy of temozolomide in orthotopic mouse glioblastoma models. Cancer Lett. 2011 Mar. 28; 302(2):100-8.

MDA-MB-231-br = assay: Colony formation assay, MDA-MB-231-br; format: cell-based, human; conditions: for IC50: Homo sapiens, 48 h, read-out: IC50 (concentration required to decrease colony formation by 50%)
Procedure: (§1) Depending on the cell line (and plating efficiency), 200-350 cells were seeded into each well of a 6-well plate. […] Thereafter, the drugs were removed, fresh growth medium was added, and the cells were kept in culture undisturbed for 12-16 days, during which time the surviving cells spawned colonies of descendants. Colonies (defined as groups of >50 cells) were visualized by staining for 4 hours with 1% methylene blue (in methanol), and then were counted.
The cytotoxic potency of TMZ-POH, was analyzed by colony formation assay (CFA) in a variety of human breast cancer cell lines and compared to the cytotoxicity of TMZ. We used estrogen receptor positive cells MCF7 and T47D, the triple-negative lines MDA-MB-231, MDA-MB-468, and HCC-1937, and a brain-seeking variant of the 231 cell line, MDA-MB-231-br.

231-MGMT-1 = assay: Colony formation assay, MGMT-transfected 231-MGMT-1; format: cell-based, human; conditions: for IC50: Homo sapiens, 48 h, read-out: IC50 (concentration required to decrease colony formation by 50%)
Procedure: as §1
(§2) In the case of O6-BG treatment, cells were pretreated with 10 μM O6-BG for one hour before addition of TMZ or TMZ-POH. After 24 hours, another 10 μM O6-BG was added to the medium. Another 24 hours later, drug-laced medium was removed, and fresh medium without drugs was added. Thereafter, cells remained undisturbed until staining with methylene blue.
(§3) MDA-MB-231 cells were co-transfected in 6-well plates with the use of Lipofectamine 2000 (Invitrogen, Carlsbad, Calif.) according to manufacturer's instructions. 2 μg pSV2MGMT (containing the human MGMT cDNA) was combined with 0.2 μg pSV2neo (containing the neomycin gene for selection of cells in G418). Both plasmids were provided by Bernd Kaina (Mainz, Germany). Individual clones of transfected cells were selected in medium containing 750 μg/mL G418 and propagated in 250 μg/mL G418. G418 was obtained as G418 disulfate salt from Sigma-Aldrich and dissolved in PBS at 75 mg/mL. Selection medium was removed from cells several days before experimental drug treatment.
(§4) To investigate the latter, we stably transfected MGMT-negative MDA-MB-231 cells with MGMT cDNA and isolated individual clones. […] Both clones were treated with increasing concentrations of TMZ-POH and TMZ and analyzed by CFA.

231-MGMT-2 = assay: Colony formation assay, MGMT-transfected 231-MGMT-2; format: cell-based, human; conditions: for IC50: Homo sapiens, 48 h, read-out: IC50 (concentration required to decrease colony formation by 50%)
Procedure: as §1, §2, §3, §4

MGMT = assay: Western blot of MGMT protein levels in MDA-MB-468 cells; format: cell-based, human; conditions: in words
Procedure: In FIG. 21C, MDA-MB-468 cells were treated with the indicated concentrations of TMZ-POH, TMZ, or O6-BG for 17 hours before harvest of cellular lysates. vh.=cells treated with vehicle only.
Total cell lysates were analyzed by Western blot analysis as described in P. Pyrko et al. Downregulation of survivin expression and concomitant induction of apoptosis by celecoxib and its non-cyclooxygenase-2-inhibitory analog, dimethyl-celecoxib (DMC), in tumor cells in vitro and in vivo. Mol Cancer 5 (2006) 19. The primary antibodies were purchased from Cell Signaling Technology (Beverly, Mass.) or Santa Cruz Biotechnology, Inc. (Santa Cruz, Calif.) and used according to the manufacturers' recommendations. All immunoblots were repeated at least once to confirm the results.
The major cytotoxic DNA lesion set by TMZ is methylation of O6-guanine, and it is well known that removal of this methyl group by MGMT leads to rapid degradation of the DNA repair protein.

Row | Structure (SMILES) | cytotoxicity (MTT assay) (U251 human glioma cells) | IC50 (MDA-MB-231-br) | IC50 (231-MGMT-1) | IC50 (231-MGMT-2) | MGMT protein levels (MGMT; MDA-MB-468, 50 μM, 17 hours) | Differential (−fold) (MDA-MB-231-br; fold increase in potency of TMZ-POH compared to TMZ, MDA-MB-231-br) | colony formation (CFA) (MDA-MB-231-br; low micromolar concentrations, 48 hours, in words) | Differential (−fold) (231-MGMT-1; fold increase in potency of TMZ-POH compared to TMZ, 231-MGMT-1) | Differential (−fold) (231-MGMT-2; fold increase in potency of TMZ-POH compared to TMZ, 231-MGMT-2) | MGMT protein levels (MGMT; MDA-MB-468, 17 hours)
1 | Cn1nnc2c(C(N)=O)ncn2c1=O [TMZ, temozolomide, reference compound] | minimal cytotoxicity | 3.8 µM | 202 µM | 212 µM | no effect |  |  |  |  | 
2 | C=C(C)[C@@H]1CC=C(COC(=O)NC(=O)c2ncn3c(=O)n(C)nnc23)CC1 [TMZ-POH] | substantially higher kill rates; also recorded: demonstrated cytotoxicity | 1.2 µM | 27 µM | 34 µM | significant decrease | 3.2 −fold | prevented colony formation | 7.5 −fold | 6.2 −fold | affects MGMT levels more potently than TMZ
